Experimental data published in ChEMBL document CHEMBL2163196, “Discovery of small molecules that inhibit melanogenesis via regulation of tyrosinase expression” (Bioorg Med Chem Lett, 2012).
The source made the active and inactive calls. The calls are words filed in the database; no cut-off is given here.

Key:
B16-F10 [1] = assay: Inhibition of alpha-MSH-induced melanogenesis in mouse B16F10 cells at 10 uM after 3 days by spectrophotometric analysis relative to control; type: functional; conditions: B16-F10, 72 h
[2] = Inhibition of tyrosinase
B16-F10 [3] = assay: Inhibition of alpha-MSH-induced melanogenesis in mouse B16F10 cells at 1 uM after 3 days by spectrophotometric analysis relative to control; type: functional; conditions: B16-F10, 72 h
B16-F10 [4] = assay: Inhibition of alpha-MSH-induced melanogenesis in mouse B16F10 cells after 3 days by spectrophotometric analysis; type: functional, cell-based; conditions: for IC50: B16-F10, 72 h
B16-F10 [5] = assay: Ratio of kojic acid IC50 to compound IC50 for melanogenesis in mouse B16F10 cells; type: functional
B16-F10 [6] = assay: Cytotoxicity against mouse alpha-MSH-induced B16F10 cells at 0.31 to 20 uM after 3 days by trypan blue staining; type: cell-based; conditions: b16-f10, 72 h
B16-F10 [7] = assay: Downregulation of tyrosinase in mouse B16F10 cells assessed as tyrosinase protein expression level at 5 uM after 24 hrs by Western blot analysis relative to actin (reference value: 1.6); type: functional
B16-F10 [8] = assay: Downregulation of tyrosinase in mouse B16F10 cells assessed as tyrosinase protein expression level at 5 uM after 48 hrs by Western blot analysis relative to actin (reference value: 1.1); type: functional

SMILES | inhibition [2] | IC50 (B16-F10 [4]) [nM] | inhibition at 10 µM (B16-F10 [1]) [%] | inhibition at 1 µM (B16-F10 [3]) [%] | inhibition (B16-F10 [4]) | Ratio IC50 (B16-F10 [5]) | Activity (B16-F10 [6]) | fold change (FC) (B16-F10 [7]) | fold change (FC) (B16-F10 [8])
COc1cccc(N2CCN(C(=O)c3noc4c3CCCCC4)CC2)c1 | inactive | – | < 5 | – | – | – | – | – | –
O=c1cc(CO)occ1O [KOJIC ACID] | – | 84500 | – | – | – | – | – | – | –
COc1ccc(N2CCCN(C(=O)c3noc4c3CCCCC4)CC2)cc1 | inactive | – | 30 | – | – | – | – | – | –
COc1ccc(CN2CCN(C(=O)c3noc4c3CCCCC4)CC2)cc1 | inactive | – | < 5 | < 5 | – | – | – | – | –
CCCc1ccc(N2CCCN(C(=O)c3noc4c3CCCCC4)CC2)cc1 | inactive | – | 95 | 15 | – | – | – | – | –
O=C(c1noc2c1CCCCC2)N1CCN(c2ncccn2)CC1 | inactive | – | 8 | 11 | – | – | – | – | –
CCCOc1ccc(N2CCN(C(=O)c3noc4c3CCCCC4)CC2)cc1 | inactive | – | 38 | 34 | – | – | – | – | –
O=C(c1noc2c1CCCCC2)N1CCN(c2ccc3c(c2)OCCO3)CC1 | inactive | – | < 5 | – | – | – | – | – | –

Second part, led by results:

inhibition [2] | IC50 (B16-F10 [4]) [nM] | SMILES | inhibition at 10 µM (B16-F10 [1]) [%] | inhibition at 1 µM (B16-F10 [3]) [%] | inhibition (B16-F10 [4]) | Ratio IC50 (B16-F10 [5]) | Activity (B16-F10 [6]) | fold change (FC) (B16-F10 [7]) | fold change (FC) (B16-F10 [8])
inactive | – | Cc1ccc(N2CCN(C(=O)c3noc4c3CCCCC4)CC2)cc1 | < 5 | – | – | – | – | – | –
inactive | 670 | COc1ccc(N2CCN(C(=O)c3noc4c3CCCCC4)CC2)cc1 | 92 | 42 | Dose-dependent effect | 126 | Non-toxic | – | –
inactive | – | CCCc1ccc(N2CCN(C(=O)c3noc4c3CCCCC4)CC2)cc1 | 56 | 21 | – | – | – | – | –
inactive | 990 | CCOc1ccc(N2CCN(C(=O)c3noc4c3CCCCC4)CC2)cc1 | 90 | 47 | Dose-dependent effect | 85 | Non-toxic | 0.9 | 0.7
inactive | 1010 | O=C(c1noc2c1CCCCC2)N1CCN(c2ccc(O)cc2)CC1 | 89 | 47 | Dose-dependent effect | 85 | Non-toxic | – | –
inactive | – | O=C(c1noc2c1CCCCC2)N1CCN(c2ccc(Cl)cc2)CC1 | 7 | – | – | – | – | – | –
inactive | – | O=C(c1noc2c1CCCCC2)N1CCN(c2ccc(F)cc2)CC1 | < 5 | – | – | – | – | – | –
